This is an account of results in patent US11542233B2, “Compounds, compositions and methods of use” (Aquinnah Pharmaceuticals, Inc., priority 2016, dated 2023).

The structures appear in SMILES notation.

The test system of the assay is TDP-43 aggregation in PC12 cells stably expressing GFP-tagged mutant TDP-43 (TDP-43^Q33IK::eGFP). Nature of the assay: In vitro efficacy assay: inhibition of TDP-43 inclusions, concentration-response, fluorescence microscopy. The class given is cell-based. The following applies: Rattus norvegicus, PC-12, PC12 cells, 1 hour pre-treatment, 15 μM sodium arsenite for 23 hours, 10-point dose response curve. Put shortly: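 PC12 cells stably expressing TDP-43^Q33IK::eGFP pre-treated 1 h with compound, then stressed with 15 μM sodium arsenite for 23 h. Fluorescence microscopy gave the fraction of GFP-positive cells bearing aggregates; IC50 from concentration-response, reported in bins: A <100 nM, B 100–500 nM, C 500 nM–2 μM, D >2 μM.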
Consider `CCN(C(=O)c1nc2ccccc2[nH]1)[C@H]1CCC[C@@H](NCc2ccc3oc(C)nc3c2)C1` [Compound 531], for which the IC50 fell in the range of 0.1 to 0.5 µM.

As for `CCN(C(=O)c1cc2cc(C#N)ccc2[nH]1)[C@H]1CCC[C@@H](NCc2ccc(F)cc2)C1` [Compound 532, 5-cyano-N-ethyl-N-((1S,3R)-3-((4-fluorobenzyl)amino)cyclohexyl)-1H-indole-2-carboxamide], the IC50 is less than 0.1 µM.

Consider `CCN(C(=O)c1cc2cc(C#N)ccc2[nH]1)[C@H]1CCC[C@@H](NCc2cc3ccccc3o2)C1` [Compound 533], for which the IC50 is less than 0.1 µM.

Turning to `CCN(C(=O)c1cc2cc(C#N)ccc2[nH]1)[C@H]1CCC[C@@H](NCc2cccc(F)c2)C1` [Compound 534], the IC50 was less than 0.1 µM.

Turning to `CCN(C(=O)c1cc2cc(C#N)ccc2[nH]1)[C@H]1CCC[C@@H](NCc2oc3ccccc3c2C)C1` [Compound 535], the IC50 was less than 0.1 µM.

Take `CCN(C(=O)c1cc2cc(C#N)ccc2[nH]1)[C@H]1CCC[C@@H](NCc2oc3ccccc3c2C#N)C1` [Compound 536, 5-cyano-N-((1S,3R)-3-(((3-cyanobenzofuran-2-yl)methyl)amino)cyclohexyl)-N-ethyl-1H-indole-2-carboxamide]: the IC50 was less than 0.1 µM.

For `CCN(C(=O)c1nc2cc(C#N)ccc2[nH]1)[C@H]1CCC[C@@H](NCc2cc(C3CC3)on2)C1` [Compound 537], the IC50 was less than 0.1 µM.

For the molecule `CCN(C(=O)c1cc2cc(C#N)ccc2[nH]1)[C@H]1CCC[C@@H](NCc2ccccc2)C1` [Compound 538, N-((1S,3R)-3-(benzylamino)cyclohexyl)-5-cyano-N-ethyl-1H-indole-2-carboxamide], the IC50 was less than 0.1 µM.

For `CCN(C(=O)c1nc2cc(OC(F)(F)F)ccc2[nH]1)[C@H]1CCC[C@@H](NCc2ccccc2)C1` [Compound 539, N-((1S,3R)-3-(benzylamino)cyclohexyl)-N-ethyl-5-(trifluoromethoxy)-1H-benzo[d]imidazole-2-carboxamide], the IC50 was less than 0.1 µM.

As to `CCN(C(=O)c1nc2cc(S(C)(=O)=O)ccc2[nH]1)[C@H]1CCC[C@@H](NCc2ccccc2)C1` [Compound 540], the IC50 is less than 0.1 µM.

Turning to `CCN(C(=O)c1nc2cc(C3CC3)ccc2[nH]1)[C@H]1CCC[C@@H](NCc2ccccc2)C1` [Compound 541], the IC50 was less than 0.1 µM.

Consider `CCN(C(=O)c1cc2cc(OC(F)(F)F)ccc2[nH]1)[C@H]1CCC[C@@H](NCc2ccccc2)C1` [Compound 542, N-((1S,3R)-3-(benzylamino)cyclohexyl)-N-ethyl-5-(trifluoromethoxy)-1H-indole-2-carboxamide], for which the concentration for half-maximal inhibition (IC50) was less than 0.1 µM.

Consider `CCN(C(=O)c1cc2cc(C3CC3)ccc2[nH]1)[C@H]1CCC[C@@H](NCc2ccccc2)C1` [Compound 543], for which the concentration for half-maximal inhibition (IC50) was less than 0.1 µM.

For the molecule `CCN(C(=O)c1cc2cc(C(F)(F)F)ccc2[nH]1)[C@H]1CCC[C@@H](NCc2ccccc2)C1` [Compound 544], the IC50 is less than 0.1 µM.

Turning to `CCN(C(=O)c1nc2cc(C(F)(F)F)ccc2[nH]1)[C@H]1CCC[C@@H](NCc2ccccc2)C1` [Compound 545], the IC50 was less than 0.1 µM.

In the case of `CCN(C(=O)c1cc2cc(S(C)(=O)=O)ccc2[nH]1)[C@H]1CCC[C@@H](NCc2ccccc2)C1` [Compound 546], the IC50 is 0.1 to 0.5 µM.

For the molecule `CCN(C(=O)c1cc2cc(F)ccc2[nH]1)[C@H]1CCC[C@@H](NCc2ccccc2)C1` [Compound 547, N-((1S,3R)-3-(benzylamino)cyclohexyl)-N-ethyl-5-fluoro-1H-indole-2-carboxamide], the IC50 was less than 0.1 µM.

`CCN(C(=O)c1cc2cc(F)ccc2[nH]1)[C@H]1CCC[C@@H](NCc2oc3ccccc3c2C)C1` [Compound 548]: the IC50 is less than 0.1 µM.

As to `CCN(C(=O)c1cc2cc(F)ccc2[nH]1)[C@H]1CCC[C@@H](NCc2cccc(F)c2)C1` [Compound 549], the IC50 is less than 0.1 µM.

Consider `CCN(C(=O)c1cc2cc(F)ccc2[nH]1)[C@H]1CCC[C@@H](NCc2cc3ccccc3o2)C1` [Compound 550], for which the IC50 was less than 0.1 µM.

As to `CCN(C(=O)c1cc2cc(F)ccc2[nH]1)[C@H]1CCC[C@@H](NCc2ccc(F)cc2)C1` [Compound 551], the IC50 is less than 0.1 µM.

Regarding `CCN(C(=O)c1nc2cc(F)ccc2[nH]1)[C@H]1CCC[C@@H](NCc2cc(C3CC3)on2)C1` [Compound 552, N-((1S,3R)-3-(((5-cyclopropylisoxazol-3-yl)methyl)amino)cyclohexyl)-N-ethyl-5-fluoro-1H-benzo[d]imidazole-2-carboxamide], the IC50 is less than 0.1 µM.

On to `CCN(C(=O)c1cc2cc(F)ccc2[nH]1)[C@H]1CCC[C@@H](NCc2oc3ccccc3c2C#N)C1` [Compound 553], for which the IC50 was less than 0.1 µM.

Consider `CCN(C(=O)c1nc2ccccc2[nH]1)[C@H]1CCC[C@@H](NCc2cc(C(F)(F)F)on2)C1` [Compound 554, N-ethyl-N-((1S,3R)-3-(((5-(trifluoromethyl)isoxazol-3-yl)methyl)amino)cyclohexyl)-1H-benzo[d]imidazole-2-carboxamide], for which the IC50 was less than 0.1 µM.

For `CCN(C(=O)c1nc2ccccc2[nH]1)[C@@]1(C)CCC[C@@H](NCc2ccccc2)C1` [Compound 555, N-((1S,3R)-3-(benzylamino)-1-methylcyclohexyl)-N-ethyl-1H-benzo[d]imidazole-2-carboxamide], the IC50 is more than 2 µM.

Consider `CCN(C(=O)c1nc2cc(F)ccc2[nH]1)[C@@]1(C)CCC[C@@H](NCc2ccccc2)C1` [Compound 556, N-((1S,3R)-3-(benzylamino)-1-methylcyclohexyl)-N-ethyl-5-fluoro-1H-benzo[d]imidazole-2-carboxamide], for which the IC50 was more than 2 µM.

Regarding `C#CCOc1ccc(CN[C@@H]2CCC[C@H](N(CC)C(=O)c3nc4cc(N=[N+]=[N-])ccc4[nH]3)C2)cc1` [Compound 557, 5-azido-N-ethyl-N-((1S,3R)-3-((4-(prop-2-yn-1-yloxy)benzyl)amino)cyclohexyl)-1H-benzo[d]imidazole-2-carboxamide], the IC50 is less than 0.1 µM.

Take `C#CCOc1cccc(CN[C@@H]2CCC[C@H](N(CC)C(=O)c3nc4c(N=[N+]=[N-])cccc4[nH]3)C2)c1` [Compound 560]: the IC50 is less than 0.1 µM.

As for `C#CCOc1ccc(CN[C@@H]2CCC[C@H](N(CC)C(=O)c3nc4cc([N+](=O)[O-])ccc4[nH]3)C2)cc1` [Compound 561, N-ethyl-5-nitro-N-((1S,3R)-3-((4-(prop-2-yn-1-yloxy)benzyl)amino)cyclohexyl)-1H-benzo[d]imidazole-2-carboxamide], the IC50 is less than 0.1 µM.

Turning to `C#CCOc1ccc(CN[C@@H]2CCC[C@H](N(CC)C(=O)c3nc4cc(N)ccc4[nH]3)C2)cc1` [Compound 562, 5-amino-N-ethyl-N-((1S,3R)-3-((4-(prop-2-yn-1-yloxy)benzyl)amino)cyclohexyl)-1H-benzo[d]imidazole-2-carboxamide], the IC50 lay in the range of 0.5 to 2 µM.

For the molecule `C#CCOc1cccc(CN[C@@H]2CCC[C@H](N(CC)C(=O)c3nc4cc([N+](=O)[O-])ccc4[nH]3)C2)c1` [Compound 563], the IC50 was less than 0.1 µM.

In the case of `C#CCOc1cccc(CN[C@@H]2CCC[C@H](N(CC)C(=O)c3nc4cc(N)ccc4[nH]3)C2)c1` [Compound 564], the IC50 was 0.1 to 0.5 µM.

With `C#CCOc1ccc(CN[C@@H]2CCC[C@H](N(CC)C(=O)c3nc4c([N+](=O)[O-])cccc4[nH]3)C2)cc1` [Compound 565], the IC50 was less than 0.1 µM.

As for `C#CCOc1cccc(CN[C@@H]2CCC[C@H](N(CC)C(=O)c3nc4c([N+](=O)[O-])cccc4[nH]3)C2)c1` [Compound 566], the IC50 was less than 0.1 µM.

For the molecule `C#CCOc1ccc(CN[C@@H]2CCC[C@H](N(CC)C(=O)c3nc4c(N)cccc4[nH]3)C2)cc1` [Compound 567], the IC50 is less than 0.1 µM.

Consider `C#CCOc1cccc(CN[C@@H]2CCC[C@H](N(CC)C(=O)c3nc4c(N)cccc4[nH]3)C2)c1` [Compound 568], for which the IC50 is less than 0.1 µM.

For `CCN(C(=O)c1nc2cc(F)ccc2[nH]1)[C@H]1CCC[C@@H](NCc2oc3ccccc3c2C#N)C1` [compound 510], the IC50 was less than 0.1 µM.

By IC50 is commonly meant the midpoint of a concentration-inhibition curve.
